Values after ≈ are worked out from the molar mass of the structure shown.
Experiments:
Acetylcholinesterase = Acetylcholinesterase (Homo sapiens, UniProt P22303); assay: Inhibition of AChE (unknown origin) using […] as substrate preincubated for 15 mins followed by substrate addition measured every minute by spectrophotometric analysis
Vero = assay: Cytotoxicity against monkey Vero cells assessed as decrease in cell viability after 72 hrs by MTT assay; type: cell-based; conditions: Chlorocebus sabaeus
[1] = system: Mycobacterium tuberculosis; assay: Antimicrobial activity against Mycobacterium tuberculosis H37Rv by Alamar blue assay; type: functional
[2] = system: Mycobacterium tuberculosis; assay: Potency index, ratio of pyrimethamine IC50 to test compound IC50 for Mycobacterium tuberculosis H37Rv; type: functional
[3] = system: Mycobacterium tuberculosis; assay: Potency index, ratio of cycloserine IC50 to test compound IC50 for Mycobacterium tuberculosis H37Rv; type: functional

Sequence of Acetylcholinesterase (P22303 whole entry): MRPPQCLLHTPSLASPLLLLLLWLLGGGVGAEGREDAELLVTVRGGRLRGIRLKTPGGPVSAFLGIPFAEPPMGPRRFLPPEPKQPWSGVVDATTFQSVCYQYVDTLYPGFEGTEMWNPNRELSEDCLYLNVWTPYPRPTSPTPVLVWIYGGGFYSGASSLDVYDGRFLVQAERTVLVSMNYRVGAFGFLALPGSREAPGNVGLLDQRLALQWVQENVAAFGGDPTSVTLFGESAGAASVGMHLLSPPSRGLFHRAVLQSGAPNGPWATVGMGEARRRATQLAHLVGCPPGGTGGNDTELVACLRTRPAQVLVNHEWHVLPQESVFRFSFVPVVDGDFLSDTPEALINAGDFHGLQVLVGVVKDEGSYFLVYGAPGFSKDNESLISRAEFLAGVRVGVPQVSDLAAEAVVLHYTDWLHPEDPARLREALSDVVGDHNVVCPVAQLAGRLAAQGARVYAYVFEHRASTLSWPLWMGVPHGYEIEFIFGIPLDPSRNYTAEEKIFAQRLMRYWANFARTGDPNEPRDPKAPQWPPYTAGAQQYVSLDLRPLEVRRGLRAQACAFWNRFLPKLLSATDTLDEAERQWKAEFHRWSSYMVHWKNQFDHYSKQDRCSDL

Row | Compound | IC50 (Acetylcholinesterase) [µM] | IC50 (Vero) [µg/mL] | IC50 [1] [µM] | IC90 [1] [µM] | MIC [1] [µM] | Ratio IC50 [2] | Ratio IC50 [3]
1 | CN1CC2C(=O)N(c3ccc(Br)cc3)C(=O)C2C12C(=O)c1ccccc1C2=O (stereo not given) | 73.3 | > 6.25 | 11.1 | 22 | 50 (≈ 22 µg/mL) | – | –
2 | CC[C@@H](CO)NCCN[C@@H](CC)CO [ETHAMBUTOL] | – | > 6.25 | < 1.56 | – | 12.5 (≈ 2.55 µg/mL) | – | –
3 | CN1CC2C(=O)N(c3ccccc3)C(=O)C2C12C(=O)c1ccccc1C2=O (stereo not given) | 69.8 | > 6.25 | 13.2 | 25.9 | 50 (≈ 18 µg/mL) | – | –
4 | COc1ccc(N2C(=O)C3CN(C)C4(C(=O)c5ccccc5C4=O)C3C2=O)cc1 (stereo not given) | 0.78 | > 6.25 | 17.2 | 35.5 | 50 (≈ 19.5 µg/mL) | – | –
5 | CN1CC2C(=O)N(c3cccc(F)c3)C(=O)C2C12C(=O)c1ccccc1C2=O (stereo not given) | 80.1 | > 6.25 | 28.6 | 47.7 | 50 (≈ 18.9 µg/mL) | – | –
6 | CN1CC2C(=O)N(c3ccc([N+](=O)[O-])cc3)C(=O)C2C12C(=O)c1ccccc1C2=O (stereo not given) | 6.6 | > 6.25 | 47.2 | 66.5 | 100 (≈ 40.5 µg/mL) | – | –
7 | CN1CC2C(=O)N(c3ccc(Cl)cc3)C(=O)C2C12C(=O)c1ccccc1C2=O (stereo not given) | 27.9 | > 6.25 | 1.3 | 5.3 | 25 (≈ 9.87 µg/mL) | 37 | 12
8 | CCc1nc(N)nc(N)c1-c1ccc(Cl)cc1 [PYRIMETHAMINE] | – | > 6.25 | – | – | 100 (≈ 24.9 µg/mL) | – | –
9 | CN1CC2C(=O)N(c3ccc(F)cc3)C(=O)C2C12C(=O)c1ccccc1C2=O (stereo not given) | 50.1 | > 6.25 | 2.17 | 7.86 | 50 (≈ 18.9 µg/mL) | – | –
10 | CN1C(=O)C2CN(C)C3(C(=O)c4ccccc4C3=O)C2C1=O (stereo not given) | 2.1 | > 6.25 | 22.9 | 34.6 | 50 (≈ 14.9 µg/mL) | – | –
11 | Cc1ccc(N2C(=O)C3CN(C)C4(C(=O)c5ccccc5C4=O)C3C2=O)cc1 (stereo not given) | 7.34 | > 6.25 | 40 | 71.9 | 100 (≈ 37.4 µg/mL) | – | –
12 | CCc1ccc(N2C(=O)C3CN(C)C4(C(=O)c5ccccc5C4=O)C3C2=O)cc1 (stereo not given) | 44.6 | > 6.25 | 21.9 | 47.9 | 50 (≈ 19.4 µg/mL) | – | –
13 | CN1CC2C(=O)N(Cc3ccccc3)C(=O)C2C12C(=O)c1ccccc1C2=O (stereo not given) | 41.2 | > 6.25 | 55 | 96.4 | 100 (≈ 37.4 µg/mL) | – | –
14 | NNC(=O)c1ccncc1 [ISONIAZID] | – | > 6.25 | – | 0.29 | 0.31 (≈ 0.0425 µg/mL) | – | –
15 | CC(C)c1ccc(N2C(=O)C3CN(C)C4(C(=O)c5ccccc5C4=O)C3C2=O)cc1 (stereo not given) | 12.2 | > 6.25 | 28.5 | 52.4 | 100 (≈ 40.2 µg/mL) | – | –
16 | N[C@@H]1CONC1=O [CYCLOSERINE] | – | > 6.25 | – | – | 25 (≈ 2.55 µg/mL) | – | –
17 | COc1ccccc1N1C(=O)C2CN(C)C3(C(=O)c4ccccc4C3=O)C2C1=O (stereo not given) | 11.1 | > 6.25 | 28.3 | 46.5 | 50 (≈ 19.5 µg/mL) | – | –
18 | CN1CC2C(=O)N(C3CCCCC3)C(=O)C2C12C(=O)c1ccccc1C2=O (stereo not given) | 4.12 | > 6.25 | 15.9 | 34.6 | 100 (≈ 36.6 µg/mL) | – | –
19 | NCC[C@H](O)C(=O)N[C@@H]1C[C@H](N)[C@@H](O[C@H]2O[C@H](CN)[C@@H](O)[C@H](O)[C@H]2O)[C@H](O)[C@H]1O[C@H]1O[C@H](CO)[C@@H](O)[C@H](N)[C@H]1O [AMIKACIN] | – | > 6.25 | – | 0.08 | 0.16 (≈ 0.0937 µg/mL) | – | –
